Source: patent publication US10314323B2, “Methods for improving the condition of hair in non-human animals” (Hill's Pet Nutrition, Inc., priority 2012, dated 2019)
“Also recorded” adds a separate entry of the source.

Tested on: healthy adult cats
Experiment: Hair 18-MEA content after feeding amino acid supplemented diets to healthy cats
Type: in vivo, cat
Conditions: versus control base diet, regression model with base line as covariant; p<0.05 for isoleucine and threonine, p>0.05 for leucine
From the text: The hair was clipped from the left middle flank areas of 24 healthy adult cats. The clipped regions measured approximately 20.32 cm by 10.16 cm (about 8 inches by about 4 inches). Hair was clipped as close to the skin as possible. The cats were then fed a base diet consisting of a commercially available nutritionally complete food for a period of 90 days. The nutrient content of the base food is set out in Table 1. On day 90, newly grown hair was clipped from the left middle flanks of the cats. The clipped regions measured approximately 19.05 cm by 8.89 cm (about 7.5 inches by about 3.5 inches). Samples of the clipped hair from each cat were retained and analysed for their 18-MEA content in order to determine the base line levels. The cats were divided into four groups of 6. The age, sex and nurturing status of the cats were balanced between the groups. The groups were randomly assigned a diet selected from the base diet, the base diet plus supplemental leucine, the base diet plus supplemental isoleucine, and the base diet plus supplemental threonine as shown in Table 2. The groups were fed the assigned diets for 90 days. On day 180, the newly grown hair was clipped from the left middle flanks of the cats. The clipped regions measured approximately 17.78 cm by 7.62 cm (about 7 inches by about 3 inches). Samples of clipped hair from each cat were retained and analysed for 18-MEA content. For the 18-MEA analysis, hair samples were first washed with circulating ethyl ether for 6 hours to remove the surface lipids and oils. The hair samples were cut into pieces about 5 mm in length or less, digested and extracted for 18-MEA that was measured with a gas chromatograph. The 18-MEA data were analysed using a regression model. Hair 18-MEA content was the dependent variable, and diet was used as the independent variable. The base line data were used as the covariant.

| SMILES | Effect on 18-MEA concentration of the hair |
| --- | --- |
| C[C@@H](O)[C@H](N)C(=O)O [threonine, (2S, 3R)-2-amino-3-hydroxybutanoic acid] | increase; also recorded: significantly increased |
| CC(C)C[C@H](N)C(=O)O [Leucine, leucine, reference compound] | no significant effect |
| CC[C@H](C)[C@H](N)C(=O)O [isoleucine, (2S, 3S)-2-amino-3-methylpentanoic acid] | increase; also recorded: significantly increased |
